Measured values: PMC3204379 (Journal of molecular biology, 2011)

Molecular target: PtpA (Staphylococcus aureus, UniProt P0C5D2)
Assay: phosphatase activity
Type: biochemical
Conditions: artificial substrate; conditions not given

Sequence of PtpA (P0C5D2 whole entry): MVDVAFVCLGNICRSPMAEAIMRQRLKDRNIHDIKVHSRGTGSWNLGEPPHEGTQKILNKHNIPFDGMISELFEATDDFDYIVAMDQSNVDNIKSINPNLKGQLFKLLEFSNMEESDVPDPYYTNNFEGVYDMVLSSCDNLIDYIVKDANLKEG

## O=[N+]([O-])c1ccc(OP(=O)(O)O)cc1 [para-nitrophenol phosphate]
  phosphatase activity (data not shown): activity of PtpA with the artificial phosphatase substrate para-nitrophenol phosphate
